The text below walks through data of paper PMC3431801 (2012).

What all share (format): biochemical
Assay [1] has as its system PDE3. In words: recombinant PDE activity assay with [3H]cAMP.
Assay [2] has as its system PDE1. The assay can be described thus: recombinant PDE activity assay with [3H]cAMP, calmodulin and Ca2+.
Assay [3] addresses PDE4D (PDE4) (Homo sapiens, UniProt Q08499). The assay can be described thus: recombinant PDE activity assay with [3H]cAMP.

PDE4D (PDE4), sequence (Q08499 whole entry): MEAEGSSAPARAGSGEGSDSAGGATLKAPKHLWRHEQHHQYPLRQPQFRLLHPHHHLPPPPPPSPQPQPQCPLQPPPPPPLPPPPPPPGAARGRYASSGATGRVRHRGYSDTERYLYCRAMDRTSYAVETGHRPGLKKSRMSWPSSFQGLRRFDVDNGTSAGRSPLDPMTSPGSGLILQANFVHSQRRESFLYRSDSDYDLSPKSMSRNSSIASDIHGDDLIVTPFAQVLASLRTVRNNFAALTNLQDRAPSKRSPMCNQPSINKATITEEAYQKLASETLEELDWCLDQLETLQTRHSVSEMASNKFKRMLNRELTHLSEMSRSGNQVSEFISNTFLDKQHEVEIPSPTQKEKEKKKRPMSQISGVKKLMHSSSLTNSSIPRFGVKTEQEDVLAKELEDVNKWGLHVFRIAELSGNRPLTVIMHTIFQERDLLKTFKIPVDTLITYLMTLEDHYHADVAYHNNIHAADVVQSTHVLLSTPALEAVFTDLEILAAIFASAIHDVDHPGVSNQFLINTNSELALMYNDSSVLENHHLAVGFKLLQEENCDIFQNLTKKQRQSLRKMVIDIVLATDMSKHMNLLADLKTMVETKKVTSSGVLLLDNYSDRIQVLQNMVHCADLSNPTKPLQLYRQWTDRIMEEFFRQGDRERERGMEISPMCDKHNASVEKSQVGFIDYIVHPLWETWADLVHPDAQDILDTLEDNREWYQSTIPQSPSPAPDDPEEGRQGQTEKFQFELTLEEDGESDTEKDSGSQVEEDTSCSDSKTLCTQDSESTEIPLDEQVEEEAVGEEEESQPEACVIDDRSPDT

The term IC50 denotes the point on the concentration scale where inhibition reaches its midpoint. On to `Oc1ccc(/C=C/c2cc(O)cc(O)c2)cc1` [resveratrol], for which the IC50 in assay [1] was ~10 µM; in assay [2], ~6 µM; in assay [3] it was ~14 µM.
